The text below walks through data of ChEMBL document CHEMBL4507260 (2021).

Activity calls are given as the source filed them. No cut-off for these calls is given here. A value given as a limit tells only on which side of the number the result lay.

Usually IC50 stands for the concentration at which inhibition is half-maximal. Broadly, the residual activity is the signal under treatment as a percentage of the control signal. Usually inhibition stands for the drop in the measured response relative to a control, in per cent. The term Ki denotes the dissociation constant of the complex between target and ligand, obtained from inhibition or displacement.

For experiment [1], the target named is T1, D(4) dopamine receptor (Homo sapiens, UniProt P21917).
T1 sequence (P21917 whole entry): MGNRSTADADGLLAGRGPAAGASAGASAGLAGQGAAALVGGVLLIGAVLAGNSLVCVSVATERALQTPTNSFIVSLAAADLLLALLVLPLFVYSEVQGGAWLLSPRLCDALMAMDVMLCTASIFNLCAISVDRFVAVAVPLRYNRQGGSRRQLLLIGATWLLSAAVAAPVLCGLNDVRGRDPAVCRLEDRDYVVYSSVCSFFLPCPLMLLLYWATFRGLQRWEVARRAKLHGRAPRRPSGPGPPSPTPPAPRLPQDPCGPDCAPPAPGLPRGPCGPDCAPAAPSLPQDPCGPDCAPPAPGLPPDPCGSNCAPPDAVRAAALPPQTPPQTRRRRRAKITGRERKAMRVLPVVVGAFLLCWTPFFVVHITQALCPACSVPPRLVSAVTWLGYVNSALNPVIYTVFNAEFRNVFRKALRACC
As to the kind of experiment: Cellular FLIPR (fluorometric imaging plate reader) assay.

The test system of experiment [2] is Epidermal growth factor receptor (Homo sapiens), P00533 [G719C]. As to conditions: Compound concentration 1000.0 nM.
Experiment [3] concerns the target Sodium-dependent noradrenaline transporter (Homo sapiens) (UniProt P23975). As to conditions: Compound concentration 10.0 uM.
Description: NE transporter CEREP ligand profiling
Experiment [4] addresses Nociceptin receptor (Homo sapiens) (UniProt P41146). The note with it: Compound concentration 10.0 uM.
Description: ORL1 CEREP ligand profiling
Experiment [5] has as its target Vasopressin V1a receptor (Homo sapiens) (UniProt P37288). The note with it: Compound concentration 10.0 uM.
Description: V1A CEREP ligand profiling
The target of experiment [6] is D(1B) dopamine receptor (Homo sapiens) (UniProt P21918). The note with it: Compound concentration 10.0 uM.
Description: D5 CEREP ligand profiling
The target in experiment [7] is Neurotensin receptor type 1 (Homo sapiens) (UniProt P30989). As to conditions: Compound concentration 10.0 uM.
Description: NT1 (NTS1) CEREP ligand profiling
The target of experiment [8] is Galanin receptor type 1 (Homo sapiens) (UniProt P47211). The note with it: Compound concentration 10.0 uM.
Description: GAL1 CEREP ligand profiling
Experiment [9] deals with T1, D(4) dopamine receptor. The experiment in a line: Radioligand assay (DRD4.4).
Experiment [10] addresses Tumor necrosis factor (Homo sapiens) (UniProt P01375). The note with it: Compound concentration 10.0 uM.
Description: TNF-a CEREP ligand profiling
Experiment [11] addresses Adenosine receptor A2a (Homo sapiens) (UniProt P29274). As to the kind of experiment: A2A CEREP ligand profiling. As to conditions: Compound concentration 10.0 uM.
Experiment [12] deals with Endothelin-1 receptor (Homo sapiens) (UniProt P25101). The note with it: Compound concentration 10.0 uM.
Description: ETA CEREP ligand profiling
Experiment [13] has as its target D(2) dopamine receptor (Homo sapiens) (UniProt P14416). As to conditions: Compound concentration 10.0 uM.
Description: D2 CEREP ligand profiling
Experiment [14] concerns the target P2Y receptor (Homo sapiens) (UniProt Q9H244+P51582+P47900+P41231+Q15391+Q15077+Q96G91+Q9BPV8). The note with it: Compound concentration 10.0 uM.
Description: P2Y CEREP ligand profiling
Experiment [15] deals with Type-2 angiotensin II receptor (Homo sapiens) (UniProt P50052). As to conditions: Compound concentration 10.0 uM.
Description: AT2 CEREP ligand profiling
For experiment [16], the target named is Muscarinic acetylcholine receptor M5 (Homo sapiens) (UniProt P08912). The note with it: Compound concentration 10.0 uM.
Sequence of Muscarinic acetylcholine receptor M5 (Homo sapiens) (P08912 whole entry): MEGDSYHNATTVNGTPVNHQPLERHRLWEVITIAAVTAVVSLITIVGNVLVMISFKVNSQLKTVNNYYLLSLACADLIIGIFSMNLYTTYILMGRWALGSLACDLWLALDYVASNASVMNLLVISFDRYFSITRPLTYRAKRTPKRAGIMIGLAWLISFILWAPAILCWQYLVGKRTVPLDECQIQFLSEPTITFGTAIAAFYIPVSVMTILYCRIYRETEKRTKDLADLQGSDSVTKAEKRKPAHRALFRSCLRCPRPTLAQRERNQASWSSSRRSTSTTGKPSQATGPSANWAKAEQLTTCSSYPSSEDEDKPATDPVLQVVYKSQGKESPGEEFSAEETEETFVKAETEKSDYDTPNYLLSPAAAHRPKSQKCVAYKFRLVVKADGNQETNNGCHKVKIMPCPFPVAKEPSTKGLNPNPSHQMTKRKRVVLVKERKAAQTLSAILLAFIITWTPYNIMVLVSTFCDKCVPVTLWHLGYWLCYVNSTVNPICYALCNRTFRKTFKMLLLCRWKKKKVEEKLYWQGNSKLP
Description: M5 CEREP ligand profiling

Sequence of D(2) dopamine receptor (Homo sapiens) (P14416 whole entry): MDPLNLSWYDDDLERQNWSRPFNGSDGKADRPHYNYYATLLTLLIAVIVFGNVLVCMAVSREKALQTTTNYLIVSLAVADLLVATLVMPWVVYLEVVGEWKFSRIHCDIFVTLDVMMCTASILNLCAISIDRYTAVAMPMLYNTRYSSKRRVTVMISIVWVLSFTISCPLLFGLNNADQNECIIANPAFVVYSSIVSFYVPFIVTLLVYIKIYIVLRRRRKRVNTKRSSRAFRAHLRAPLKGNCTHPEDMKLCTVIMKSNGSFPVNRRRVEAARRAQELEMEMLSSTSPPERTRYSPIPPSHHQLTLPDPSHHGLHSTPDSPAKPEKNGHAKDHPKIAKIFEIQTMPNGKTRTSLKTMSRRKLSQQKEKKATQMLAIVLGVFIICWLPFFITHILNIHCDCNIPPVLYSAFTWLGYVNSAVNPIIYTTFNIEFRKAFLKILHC
Sequence of Tumor necrosis factor (Homo sapiens) (P01375 whole entry): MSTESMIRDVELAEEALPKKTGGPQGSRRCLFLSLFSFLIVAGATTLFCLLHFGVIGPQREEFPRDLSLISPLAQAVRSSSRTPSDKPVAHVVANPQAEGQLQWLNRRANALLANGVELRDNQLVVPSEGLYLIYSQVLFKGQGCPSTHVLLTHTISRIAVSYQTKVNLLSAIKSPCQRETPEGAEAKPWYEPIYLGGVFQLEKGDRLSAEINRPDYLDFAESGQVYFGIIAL
Sequence of D(1B) dopamine receptor (Homo sapiens) (P21918 whole entry): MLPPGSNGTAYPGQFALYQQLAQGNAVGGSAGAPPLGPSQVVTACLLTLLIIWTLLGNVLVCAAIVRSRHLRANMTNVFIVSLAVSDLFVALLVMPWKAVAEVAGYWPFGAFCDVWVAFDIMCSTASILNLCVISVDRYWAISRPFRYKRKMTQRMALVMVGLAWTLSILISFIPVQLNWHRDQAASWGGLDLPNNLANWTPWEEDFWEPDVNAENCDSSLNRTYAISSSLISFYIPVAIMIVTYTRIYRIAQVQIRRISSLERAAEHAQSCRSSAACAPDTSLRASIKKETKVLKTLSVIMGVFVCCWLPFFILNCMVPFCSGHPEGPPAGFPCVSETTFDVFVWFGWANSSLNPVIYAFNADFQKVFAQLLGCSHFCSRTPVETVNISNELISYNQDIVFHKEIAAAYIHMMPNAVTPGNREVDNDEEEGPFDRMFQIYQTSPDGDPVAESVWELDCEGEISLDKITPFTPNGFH
Sequence of Nociceptin receptor (Homo sapiens) (P41146 whole entry): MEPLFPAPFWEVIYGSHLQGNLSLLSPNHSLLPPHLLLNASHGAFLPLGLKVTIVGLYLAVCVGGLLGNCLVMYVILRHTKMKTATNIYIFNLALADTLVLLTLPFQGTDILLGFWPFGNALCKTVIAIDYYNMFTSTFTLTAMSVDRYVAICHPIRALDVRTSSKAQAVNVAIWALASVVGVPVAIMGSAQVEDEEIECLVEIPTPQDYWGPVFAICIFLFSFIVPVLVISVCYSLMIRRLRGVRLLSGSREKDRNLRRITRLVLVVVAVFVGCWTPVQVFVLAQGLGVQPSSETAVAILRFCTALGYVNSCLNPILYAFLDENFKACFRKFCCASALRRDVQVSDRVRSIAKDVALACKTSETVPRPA
Sequence of Type-2 angiotensin II receptor (Homo sapiens) (P50052 whole entry): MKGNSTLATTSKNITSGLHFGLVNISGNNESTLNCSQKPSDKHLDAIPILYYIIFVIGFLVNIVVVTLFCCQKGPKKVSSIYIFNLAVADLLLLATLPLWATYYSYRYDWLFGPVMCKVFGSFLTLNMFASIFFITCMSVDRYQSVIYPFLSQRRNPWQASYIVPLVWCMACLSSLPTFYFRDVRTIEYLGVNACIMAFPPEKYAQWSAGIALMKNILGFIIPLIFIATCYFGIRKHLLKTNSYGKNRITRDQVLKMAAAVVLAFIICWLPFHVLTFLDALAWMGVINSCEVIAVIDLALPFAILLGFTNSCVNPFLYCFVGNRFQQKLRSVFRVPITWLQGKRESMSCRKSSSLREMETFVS
Sequence of Neurotensin receptor type 1 (Homo sapiens) (P30989 whole entry): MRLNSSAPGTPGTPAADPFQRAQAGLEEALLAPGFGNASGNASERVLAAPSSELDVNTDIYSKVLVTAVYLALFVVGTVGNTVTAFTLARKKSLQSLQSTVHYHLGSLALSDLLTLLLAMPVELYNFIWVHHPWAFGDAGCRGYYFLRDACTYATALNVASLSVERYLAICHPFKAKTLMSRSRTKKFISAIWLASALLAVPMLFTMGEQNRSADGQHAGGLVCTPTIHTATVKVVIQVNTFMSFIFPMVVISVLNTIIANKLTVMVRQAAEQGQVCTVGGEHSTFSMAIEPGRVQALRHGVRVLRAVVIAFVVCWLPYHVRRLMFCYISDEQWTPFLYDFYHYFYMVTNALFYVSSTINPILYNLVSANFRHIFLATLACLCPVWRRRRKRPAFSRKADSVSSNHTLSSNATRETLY
Sequence of Endothelin-1 receptor (Homo sapiens) (P25101 whole entry): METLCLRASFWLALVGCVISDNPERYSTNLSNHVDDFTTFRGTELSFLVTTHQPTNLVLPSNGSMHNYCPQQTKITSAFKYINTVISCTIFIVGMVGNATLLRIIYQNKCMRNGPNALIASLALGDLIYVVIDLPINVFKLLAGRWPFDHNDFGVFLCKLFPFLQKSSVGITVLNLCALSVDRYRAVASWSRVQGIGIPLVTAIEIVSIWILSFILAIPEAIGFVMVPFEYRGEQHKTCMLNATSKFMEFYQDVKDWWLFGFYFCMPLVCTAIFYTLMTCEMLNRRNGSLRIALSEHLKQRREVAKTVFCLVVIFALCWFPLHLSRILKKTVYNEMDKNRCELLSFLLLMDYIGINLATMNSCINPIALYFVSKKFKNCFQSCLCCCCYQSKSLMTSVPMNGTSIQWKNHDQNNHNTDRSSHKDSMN
Sequence of Galanin receptor type 1 (Homo sapiens) (P47211 whole entry): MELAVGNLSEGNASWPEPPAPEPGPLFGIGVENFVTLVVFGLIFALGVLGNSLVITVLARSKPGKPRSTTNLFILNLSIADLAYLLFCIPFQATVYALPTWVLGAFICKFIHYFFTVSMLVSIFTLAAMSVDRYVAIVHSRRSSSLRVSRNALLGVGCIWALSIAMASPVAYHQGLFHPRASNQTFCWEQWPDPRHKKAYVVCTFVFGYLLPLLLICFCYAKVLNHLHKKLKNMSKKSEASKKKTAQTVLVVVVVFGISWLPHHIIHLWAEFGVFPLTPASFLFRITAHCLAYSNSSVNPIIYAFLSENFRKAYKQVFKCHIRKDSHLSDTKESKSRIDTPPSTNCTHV
Sequence of Vasopressin V1a receptor (Homo sapiens) (P37288 whole entry, looked up): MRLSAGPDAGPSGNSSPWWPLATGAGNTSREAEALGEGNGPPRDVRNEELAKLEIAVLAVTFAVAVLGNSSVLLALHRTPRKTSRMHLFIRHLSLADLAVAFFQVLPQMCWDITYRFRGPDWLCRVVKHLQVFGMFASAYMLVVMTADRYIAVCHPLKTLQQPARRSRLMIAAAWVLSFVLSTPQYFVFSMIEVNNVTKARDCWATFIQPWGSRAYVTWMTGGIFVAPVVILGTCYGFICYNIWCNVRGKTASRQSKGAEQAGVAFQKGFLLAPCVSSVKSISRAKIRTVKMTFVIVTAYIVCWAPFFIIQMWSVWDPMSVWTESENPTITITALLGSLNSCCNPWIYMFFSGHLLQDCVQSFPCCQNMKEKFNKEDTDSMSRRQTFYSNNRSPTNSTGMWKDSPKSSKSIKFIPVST
Sequence of Sodium-dependent noradrenaline transporter (Homo sapiens) (P23975 whole entry): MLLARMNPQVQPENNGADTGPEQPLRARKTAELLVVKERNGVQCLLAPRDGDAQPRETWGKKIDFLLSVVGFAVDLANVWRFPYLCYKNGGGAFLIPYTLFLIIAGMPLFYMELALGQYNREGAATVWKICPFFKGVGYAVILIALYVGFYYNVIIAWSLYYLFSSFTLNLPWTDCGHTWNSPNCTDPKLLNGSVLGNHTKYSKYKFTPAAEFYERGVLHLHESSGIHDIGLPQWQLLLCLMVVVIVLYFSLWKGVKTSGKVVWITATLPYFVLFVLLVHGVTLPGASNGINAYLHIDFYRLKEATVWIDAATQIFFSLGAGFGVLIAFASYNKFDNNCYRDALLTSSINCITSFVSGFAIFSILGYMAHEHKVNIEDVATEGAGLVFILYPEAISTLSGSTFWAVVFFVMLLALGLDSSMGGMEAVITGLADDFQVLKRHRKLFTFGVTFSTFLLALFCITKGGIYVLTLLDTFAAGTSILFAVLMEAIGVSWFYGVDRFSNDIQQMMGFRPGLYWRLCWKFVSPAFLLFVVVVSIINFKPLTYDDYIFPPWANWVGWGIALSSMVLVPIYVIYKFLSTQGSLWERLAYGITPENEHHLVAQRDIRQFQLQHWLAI

`CSc1cccnc1N1CCN(Cc2nc3ccccc3[nH]2)CC1` [A-769]: on D(4) dopamine receptor [1], the IC50 is listed as > 10 µM (not active). Also, the residual activity in [2] was 96%.

For the compound `c1ccc(N2CCN(Cc3nc4ccccc4[nH]3)CC2)nc1` [ABT-724], the inhibition in [3], in experiment [4], in experiment [5], in experiment [6], in experiment [7] and in experiment [8] was below 10% throughout. In addition, the inhibition in experiment [10] was below 10%; in experiment [11], 28%; in [12] it was below 10%; in [13], below 10%; in experiment [14] it was below 10%; in experiment [15], below 10%. For the same compound, the inhibition in experiment [16] was below 10%. Moreover, on D(4) dopamine receptor [9], the inhibition constant (Ki) was 0.0636 µM (active).
